Laboratory results taken from patent US4605642A, “CRF antagonists” (The Salk Institute for Biological Studies, priority 1984, dated 1986).
Square brackets hold non-standard residues; d marks the D form. Peptide text beside a SMILES is read from it. Nle = CCCC[C@H](N)C(=O)O

Tests used:
[1] = test system: secretion of ACTH by cultured rat pituitary cells; experiment: Blocking of oCRF-stimulated ACTH secretion by cultured rat pituitary cells; type: cell-based; settings: general procedure set forth in Example III
Experimental: (§1) The effectiveness of synthetic CRF antagonists to block the secretion of ACTH and β-endorphin by cultured rat pituitary cells is measured using the procedure as generally set forth in Vale et al., Endocrinology, 91, 562 (1972). In vivo testing is carried out using the general procedure set forth in C. Rivier et al., Science, 218, 377 (1982).

[2] = test system: secretion of β-endorphin by cultured rat pituitary cells; experiment: Blocking of β-endorphin (β-END-LI) secretion by cultured rat pituitary cells; type: cell-based; settings: general procedure set forth in Example III
Experimental: as §1

Compound	inhibition of the secretion of ACTH (in words) [1]	inhibition of the secretion of β-END-LI (in words) [2]
Ac-DLTFHLLREVLEMARAEQLAQQAHSNRKLMDII-NH2 [[Acetyl-Asp^9, Asp^39]-hCRF(9-41)]	inhibits the secretion	inhibits the secretion
CCCC[C@H](NC(=O)[C@H](CCC(=O)O)NC(=O)[C@H](CC(C)C)NC(=O)[C@H](CCCC)NC(=O)[C@H](CCC(=O)O)NC(=O)[C@H](CCCNC(=N)N)NC(=O)[C@H](CC(C)C)NC(=O)[C@H](CC(C)C)NC(=O)[C@H](Cc1c[nH]cn1)NC(=O)[C@H](Cc1ccccc1)NC(=O)[C@@H](NC(=O)[C@H](CC(C)C)NC(=O)[C@@H](N)CC(=O)O)[C@@H](C)O)C(=O)N[C@@H](C)C(=O)N[C@@H](CCCCN)C(=O)N[C@@H](C)C(=O)N[C@@H](CCC(=O)O)C(=O)N[C@@H](CCC(N)=O)C(=O)N[C@@H](CCC(=O)O)C(=O)N[C@@H](C)C(=O)N[C@@H](CCC(=O)O)C(=O)N[C@@H](CCC(N)=O)C(=O)N[C@@H](C)C(=O)N[C@@H](C)C(=O)N[C@@H](CC(C)C)C(=O)N[C@@H](CC(N)=O)C(=O)N[C@@H](CCCNC(=N)N)C(=O)N[C@@H](CC(C)C)C(=O)N[C@@H](CC(C)C)C(=O)N[C@@H](CC(C)C)C(=O)N[C@@H](CCC(=O)O)C(=O)N[C@@H](CCC(=O)O)C(=O)N[C@@H](C)C(N)=O [[Nle^18,21]-AHC(9-41)] (H-DLTFHLLRE[Nle]LE[Nle]AKAEQEAEQAALNRLLLEEA-NH2)	inhibits the secretion	inhibits the secretion
CCCC[C@H](NC(=O)[C@@H](NC(=O)[C@@H](N)CC(C)C)[C@@H](C)O)C(=O)N[C@@H](Cc1c[nH]cn1)C(=O)N[C@@H](CC(C)C)C(=O)N[C@@H](CC(C)C)C(=O)N[C@@H](CCCNC(=N)N)C(=O)N[C@@H](CCC(=O)O)C(=O)N[C@H](C(=O)N[C@@H](CC(C)C)C(=O)N[C@@H](CCC(=O)O)C(=O)N[C@@H](CCSC)C(=O)N[C@@H](C)C(=O)N[C@@H](CCCNC(=N)N)C(=O)N[C@@H](C)C(=O)N[C@@H](CCC(=O)O)C(=O)N[C@@H](CCC(N)=O)C(=O)N[C@@H](CC(C)C)C(=O)N[C@@H](C)C(=O)N[C@@H](CCC(N)=O)C(=O)N[C@@H](CCC(N)=O)C(=O)N[C@@H](C)C(=O)N[C@@H](Cc1c[nH]cn1)C(=O)N[C@@H](CO)C(=O)N[C@@H](CC(N)=O)C(=O)N[C@@H](CCCNC(=N)N)C(=O)N[C@@H](CCCCN)C(=O)N[C@@H](CC(C)C)C(=O)N[C@@H](CCSC)C(=O)N[C@@H](CCC(=O)O)C(=O)N[C@H](C(=O)N[C@H](C(N)=O)[C@@H](C)CC)[C@@H](C)CC)C(C)C [[Nle^12]-hCRF(10-41)] (H-LT[Nle]HLLREVLEMARAEQLAQQAHSNRKLMEII-NH2)	inhibits the secretion	inhibits the secretion
H-DLTFHLLREVAEMTRAEQLAQQAHSNRKLMEII-NH2 [[Ala^19, Thr^22]-hCRF(9-41)]	inhibits the secretion	inhibits the secretion
H-LSLELLRKMIEARKQEKEKQQAANNRLLLDII-NH2	inhibits the secretion	inhibits the secretion
CCCC[C@H](NC(=O)[C@H](CCC(=O)O)NC(=O)[C@H](CC(C)C)NC(=O)[C@H](CCCC)NC(=O)[C@H](CCC(=O)O)NC(=O)[C@H](CCCNC(=N)N)NC(=O)[C@H](CC(C)C)NC(=O)[C@H](CC(C)C)NC(=O)[C@H](Cc1c[nH]cn1)NC(=O)[C@H](Cc1ccccc1)NC(=O)[C@@H](NC(=O)[C@@H](N)CC(C)C)[C@@H](C)O)C(=O)N[C@@H](C)C(=O)N[C@@H](CCCCN)C(=O)N[C@@H](C)C(=O)N[C@@H](CCC(=O)O)C(=O)N[C@@H](CCC(N)=O)C(=O)N[C@@H](CCC(=O)O)C(=O)N[C@@H](C)C(=O)N[C@@H](CCC(=O)O)C(=O)N[C@@H](CCC(N)=O)C(=O)N[C@@H](C)C(=O)N[C@@H](C)C(=O)N[C@@H](CC(C)C)C(=O)N[C@@H](CC(N)=O)C(=O)N[C@@H](CCCNC(=N)N)C(=O)N[C@@H](CC(C)C)C(=O)N[C@@H](CC(C)C)C(=O)N[C@@H](CC(C)C)C(=O)N[C@@H](CCC(=O)O)C(=O)N[C@@H](CCC(=O)O)C(=O)N[C@@H](C)C(N)=O [[Nle^18,21]-AHC(10-41)] (H-LTFHLLRE[Nle]LE[Nle]AKAEQEAEQAALNRLLLEEA-NH2)	inhibits the secretion	inhibits the secretion
H-DLSLELLRKMIEIAKQEKEKQQAANNRLLMDTI-NH2 [[Ala^21, Met^37]-sauvagine(8-40)]	inhibits the secretion	inhibits the secretion
CCCC[C@H](NC(=O)[C@@H](NC(=O)[C@H](CCC(=O)O)NC(=O)[C@H](CC(C)C)NC(=O)[C@H](CC(C)C)NC(=O)[C@H](CCCCN)NC(=O)[C@H](CCCNC(=N)N)NC(=O)[C@H](CC(N)=O)NC(=O)[C@H](CO)NC(=O)[C@H](Cc1c[nH]cn1)NC(=O)[C@H](C)NC(=O)[C@H](CCC(N)=O)NC(=O)[C@H](CCC(N)=O)NC(=O)[C@H](C)NC(=O)[C@H](CC(C)C)NC(=O)[C@H](CCC(N)=O)NC(=O)[C@H](CCC(=O)O)NC(=O)[C@H](C)NC(=O)[C@H](CCCNC(=N)N)NC(=O)[C@H](C)NC(=O)[C@H](C)NC(=O)[C@H](CCC(=O)O)NC(=O)[C@H](CC(C)C)NC(=O)[C@@H](NC(=O)[C@H](CCC(=O)O)NC(=O)[C@H](CCCNC(=N)N)NC(=O)[C@H](CC(C)C)NC(=O)[C@H](CC(C)C)NC(=O)[C@H](Cc1c[nH]cn1)NC(=O)[C@H](Cc1ccccc1)NC(=O)[C@@H](NC(=O)[C@H](CC(C)C)NC(=O)[C@@H](N)CC(=O)O)[C@@H](C)O)C(C)C)[C@@H](C)CC)C(N)=O [[Ala^21, Leu^38, Nle^41]-hCRF(9-41)] (H-DLTFHLLREVLEAARAEQLAQQAHSNRKLLEI[Nle]-NH2)	inhibits the secretion	inhibits the secretion
H-DLTFELLREVLEVARAEQLAQQAHSNRKLMEII-NH2 [[Glu^13, Val^21]-hCRF(9-41)]	inhibits the secretion	inhibits the secretion
CCCC[C@H](NC(=O)[C@H](CCC(=O)O)NC(=O)[C@H](CC(C)C)NC(=O)[C@@H](NC(=O)[C@H](CCC(=O)O)NC(=O)[C@H](CCCNC(=N)N)NC(=O)[C@H](CC(C)C)NC(=O)[C@H](CC(C)C)NC(=O)[C@H](Cc1c[nH]cn1)NC(=O)[C@H](Cc1ccccc1)NC(=O)[C@@H](NC(=O)[C@H](CC(C)C)NC(=O)[C@@H](N)CC(=O)O)[C@@H](C)O)C(C)C)C(=O)N[C@@H](C)C(=O)N[C@@H](CCCNC(=N)N)C(=O)N[C@@H](C)C(=O)N[C@@H](CCC(=O)O)C(=O)N[C@@H](CCC(N)=O)C(=O)N[C@@H](CC(C)C)C(=O)N[C@@H](C)C(=O)N[C@@H](CCC(N)=O)C(=O)N[C@@H](CCC(N)=O)C(=O)N[C@@H](C)C(=O)N[C@@H](Cc1ccc(O)cc1)C(=O)N[C@@H](CO)C(=O)N[C@@H](CC(N)=O)C(=O)N[C@@H](CCCNC(=N)N)C(=O)N[C@@H](CCCCN)C(=O)N[C@@H](CC(C)C)C(=O)N[C@@H](CCSC)C(=O)N[C@@H](CCC(=O)O)C(=O)N[C@H](C(=O)N[C@H](C(N)=O)[C@@H](C)CC)[C@@H](C)CC [[Nle^21, Tyr^32]-hCRF(9-41)] (H-DLTFHLLREVLE[Nle]ARAEQLAQQAYSNRKLMEII-NH2)	inhibits the secretion	inhibits the secretion
H-DLTLELLREMLEMAKAEQEAEQAALNRLLLEEA-NH2 [[Leu^12, Glu^13]-AHC(9-41)]	inhibits the secretion	inhibits the secretion
CCCC[C@H](N)C(=O)N[C@@H](CC(=O)O)C(=O)N[C@@H](CC(C)C)C(=O)N[C@@H](CO)C(=O)N[C@@H](Cc1ccccc1)C(=O)N[C@@H](Cc1c[nH]cn1)C(=O)N[C@@H](CC(C)C)C(=O)N[C@@H](CC(C)C)C(=O)N[C@@H](CCCNC(=N)N)C(=O)N[C@@H](CCC(=O)O)C(=O)N[C@H](C(=O)N[C@@H](CC(C)C)C(=O)N[C@@H](CCC(=O)O)C(=O)N[C@@H](CCSC)C(=O)N[C@@H](C)C(=O)N[C@@H](CCCNC(=N)N)C(=O)N[C@@H](C)C(=O)N[C@@H](CCC(=O)O)C(=O)N[C@@H](CCC(N)=O)C(=O)N[C@@H](CC(C)C)C(=O)N[C@@H](C)C(=O)N[C@@H](CCC(N)=O)C(=O)N[C@@H](CCC(N)=O)C(=O)N[C@@H](C)C(=O)N[C@@H](Cc1c[nH]cn1)C(=O)N[C@@H](CC(C)C)C(=O)N[C@@H](CC(N)=O)C(=O)N[C@@H](CCCNC(=N)N)C(=O)N[C@@H](CCCCN)C(=O)N[C@@H](CC(C)C)C(=O)N[C@@H](CCSC)C(=O)N[C@@H](CCC(=O)O)C(=O)N[C@H](C(=O)N[C@H](C(N)=O)[C@@H](C)CC)[C@@H](C)CC)C(C)C [[Nle^8, Ser^11, Leu^33]-hCRF(8-41)] (H-[Nle]DLSFHLLREVLEMARAEQLAQQAHLNRKLMEII-NH2)	inhibits the secretion	inhibits the secretion
H-LDLTLELLREMLEMEKAEKEAEQAALNRLLLEEA-NH2 [[Glu^13,22, Leu^12, Lys^26]-AHC(8-41)]	inhibits the secretion	inhibits the secretion
H-DLSLELLRKMIEIEKQEKLKQQAANNRLLMDTI-NH2 [[Leu^26, Met^37]-sauvagine(8-40)]	inhibits the secretion	inhibits the secretion
H-Asp-CML-Thr-Leu-Glu-CML-CML-Arg-Glu-Met-CML-Glu-Met-CMA-Lys-Ala-Glu-Gln- CML-Ala-Glu-Gln-Ala-CMA-CML-Asn-Arg-Leu-CML-Leu-Glu-Glu-CMA-NH2	inhibits the secretion	inhibits the secretion
H-DLTFALLREMLEMAKAEQEAEQAALNRLLLEEA-NH2 [[Ala^13]-AHC(9-41)]	inhibits the secretion	inhibits the secretion
